In ChEMBL document CHEMBL1157021, “Synthesis, structure and affinity of novel 3-alkoxy-1,2-dihydro-3H-1,4-benzodiazepin-2-ones for CNS central and peripheral benzodiazepine receptors” (Eur J Med Chem, 2010) one finds IC50 and Ki data, which are given here for ten compounds.

Structures are written as SMILES.

Assay [1] is described as follows: Displacement of [3H]flumazenil from central benzodiazepine receptor in Wistar rat brain synaptosomal membrane after 60 mins by scintillation counting. (Displacement assays read how much labelled ligand stays bound in the presence of the test substance.)
A further assay has as its target Translocator protein (Rattus norvegicus, UniProt P16257). As to the kind of experiment: Displacement of [3H]PK11195 from peripheral benzodiazepine receptor in Wistar rat brain synaptosomal membrane after 120 mins by scintillation counting.
The nature of assay [2]: Binding affinity to central benzodiazepine receptor.

Chain of Translocator protein (P16257 whole entry, looked up): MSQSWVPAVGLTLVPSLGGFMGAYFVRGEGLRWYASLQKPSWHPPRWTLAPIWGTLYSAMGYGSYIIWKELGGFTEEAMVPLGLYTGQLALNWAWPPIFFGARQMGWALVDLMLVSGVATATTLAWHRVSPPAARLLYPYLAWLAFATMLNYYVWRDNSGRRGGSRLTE

As a reminder, the IC50 is the concentration needed to halve the response being measured. Regarding `COCCO[C@H]1N=C(c2ccccc2)c2cc(Br)ccc2NC1=O`, the IC50 in assay [1] is 4930 nM; on Translocator protein, over 1000 nM. Turning to `O=C1Nc2ccc(Br)cc2C(c2ccccc2)=NC1OCCO` (centres undefined), the IC50 in assay [1] was 540 nM; on Translocator protein it was over 1000 nM.

As to `COCCO[C@@H]1N=C(c2ccccc2)c2cc(Br)ccc2NC1=O`, the results for the IC50 (in assay [1]; on Translocator protein) were 245 nM and over 1000 nM, respectively.

Regarding `CCOC1N=C(c2ccccc2Cl)c2cc(Br)ccc2NC1=O` (racemic), the results for the IC50 (in assay [1]; at Translocator protein) were 52 nM and over 1000 nM, respectively. `CCOC1N=C(c2ccccc2)c2cc(C)ccc2NC1=O` (racemic): the IC50 (in assay [1]; at Translocator protein) was over 1000 nM throughout. In the case of `O=C1Nc2ccc(Br)cc2C(c2ccccc2Cl)=NC1OCCO` (racemic), the figures for the IC50 (in assay [1]; at Translocator protein) were 48 nM and over 1000 nM, respectively.

Take `CCOC1N=C(c2ccccc2)c2cc(Br)ccc2NC1=O` (racemic): the IC50 (in assay [1]; on Translocator protein) was over 1000 nM throughout. `COCCOC1N=C(c2ccccc2Cl)c2cc(Br)ccc2NC1=O` (racemic): the IC50 in assay [1] is 9 nM; at Translocator protein it was over 1000 nM. For `COCCOC1N=C(c2ccccc2)c2cc(Br)ccc2NC1=O` (racemic), the IC50 was 510 nM in assay [1] and over 1000 nM on Translocator protein. One may read the Ki as the dissociation constant of the complex between target and ligand, obtained from inhibition or displacement. Read a low Ki as a stronger hold on the target. In the case of `O=C(O)CCC(=O)OC1N=C(c2ccccc2Cl)c2cc(Br)ccc2NC1=O` (centres undefined) [CINAZEPAM], the affinity in assay [2] corresponds to a Ki of 72 nM.
